Results from article PMC5522084, “Eg5 inhibitor YL001 induces mitotic arrest and inhibits tumor proliferation” (Oncotarget, 2017).

Assays:
B16 = experiment: Antiproliferation assay (Alamar Blue), B16; format: cell-based; settings: B16, mouse melanoma; read-out: EC50 of YL001
HeLa cells [1] = experiment: Monopolar spindle phenotype, high content imaging; format: cell-based; settings: Homo sapiens, 8 hours, analyzed with Columbus, read-out: EC50 for monopolar spindles
Protocol: HeLa cells (5 × 10^3 cells/well) were seeded in 96-well plates (Corning, 3603). Drugs were diluted appropriately in medium from 10 mM stocks in 100% DMSO and added to the cells. Following 8 hours incubation with drugs, cells were fixed with 4% paraformaldehyde (20 minutes at room temperature), permeabilized with PBST (0.5% Triton X-100 in PBS) for 15 minutes, and washed before blocking. Cells were blocked with 4% BSA for at least 30 minutes at room temperature and stained with anti-β-tubulin monoclonal antibodies (Sigma) at 400-fold dilution for 1 hour with Alexafluor 488-conjugated goat anti-mouse secondary antibodies (Invitrogen) at 300-fold dilution for 1 hour. DNA was detected with 4′,6-diamidino-2-phenylindole dihydrochloride (DAPI). Actin was detected with Phalloidin. High content screening (Perkin Elmer Operetta) was used to photograph stained cells at 40× magnification, and Columbus software was used for statistical analysis of the percentage of mitotic cells with monopolar spindles present in treated cells over the total number of cells in mitosis counted after 8 hours incubation with drugs.

DU145 = experiment: Antiproliferation assay (Alamar Blue), DU145; format: cell-based; settings: Homo sapiens, DU-145; DU145, prostate cancer; read-out: EC50 of YL001
Protocol: (§1) Cytotoxic activities of the compounds of interest were investigated with human cancer cell lines using the Alamar Blue assay. Cells (5 × 10^3 cells/well) were seeded into 96-well plates (Corning, 3603). Various sample concentrations (compounds of interest) were added to each well in duplicate, and incubated at 37°C with 5% CO2 for two days such that cells were in the exponential growth phase at the time of drug addition. Ten microliters of the Alamar Blue Solution (Invitrogen, Alamar Blue) were added to each well and incubated at 37°C for up to 2 hours in a humidified, 5% CO2 atmosphere. After incubation, florescence was measured using a microplate reader (Tecan) at an excitation wavelength of 540 nm and emission of 590 nm. Each inhibitory concentration was measured in triplicate, and averaged data points ± SD are shown. Statistical analysis was carried out with GraphPad Prism 5 and the fifty-percent effective concentration is expressed as EC50.

HeLa cells [2] = experiment: Colony formation; format: cell-based; settings: Homo sapiens, exposed 24 hours, cultured 10 days
Protocol: HeLa cells (5 × 10^2 cells/well) were seeded into 6-well plates and were treated with a series of gradient concentrations of YL001 for 24 hours, followed by washing and continual culture for 10 days. DMSO was used as a negative control, and STLC was used as a positive control. Cells were fixed with ethanol for more than 30 minutes and dyed with crystal violet for more than 30 minutes. Clones were counted with OpenCFU [54].

U87 = experiment: Antiproliferation assay (Alamar Blue), U87; format: cell-based; settings: Homo sapiens, U-87 MG; U87, brain cancer; read-out: EC50 of YL001
Protocol: as §1

HCT 116 = experiment: Cell cycle analysis by flow cytometry; format: cell-based, Human; settings: HCT 116, 8 hours treatment with 50 μM
[3] = Dose range testing in healthy mice without tumor; format: in vivo; settings: healthy B6 mice without tumor; taking into consideration the solubility
Pharmacokinetic study = format: in vivo; settings: BALB/c nude, mouse, plasma, ip; 200 mg/kg intraperitoneally, single dose, HeLa xenograft nude mice
Protocol: A HPLC-MS/MS method was developed for single-dose pharmacokinetic (PK) study of YL001 in HeLa xenograft BALB/c nude mice. YL001 was administered intraperitoneally at a dose of 200 mg/kg. Blood samples were then collected by enucleating eyeballs at 0.083, 0.167, 0.333, 0.5, 1, 2, 6, 12, 24 hours in heparinized polypropylene tubes. Three mice were sacrificed at each time point. Samples were centrifuged immediately at 4000 r/min for 20 min to separate plasma. The final sample for HPLC-MS/MS detection by QTRAP 6500 (AB Sciex, USA) was a mixture (plasma: H2O: methanol = 1:1:8). All individual data were pooled together to further perform PK analysis. DAS 2.1.2 were used to estimate PK parameters by non-compartmental analysis.

AGS = experiment: Antiproliferation assay (Alamar Blue), AGS; format: cell-based; settings: Homo sapiens, stomach cancer, read-out: EC50 of YL001
Protocol: as §1

4T1/6TG = experiment: Antiproliferation assay (Alamar Blue), 4T1/6TG; format: cell-based; settings: 6TG resistant mouse breast cancer, read-out: EC50 of YL001
A2780/taxol = experiment: Antiproliferation assay (Alamar Blue), A2780/taxol; format: cell-based; settings: Homo sapiens, taxol resistant ovarian cancer, read-out: EC50 of YL001
Protocol: as §1

MCF10A = experiment: Antiproliferation assay, normal breast cell line MCF10A; format: cell-based
Protocol: as §1

CNE-2Z = experiment: Antiproliferation assay (Alamar Blue), CNE-2Z; format: cell-based; settings: Homo sapiens, CNE2Z, nasopharyngeal cancer, read-out: EC50 of YL001
Protocol: as §1

786-O = experiment: Antiproliferation assay (Alamar Blue), 786-O; format: cell-based; settings: Homo sapiens, 786-0, renal cancer, read-out: EC50 of YL001
Protocol: as §1

Cc1ccc(-n2nnnc2/C(=C/N(C)C)C(=O)c2cccc(C(F)(F)F)c2)cc1 [YL001, (Z)-3-(dimethylamino)-2-(1-(p-tolyl)-1H-tetrazol-5-yl)-1-(3-(trifluoromethyl)phenyl)prop-2-en-1-one]
EC50 (B16): 13.9 ± 5.03 µM
EC50 (HeLa cells [1]): 15.3 µM
EC50 (DU145): 26.5 ± 0.27 µM
IC50 (HeLa cells [2]): 0.124 µM
EC50 (U87): 26.2 ± 0.12 µM
percentage of cells with 4N DNA content (HCT 116): over 80%
maximal therapeutic dose [3]: 200 mg/kg
half-life (Pharmacokinetic study): 5.3 h
EC50 (AGS): 20.2 ± 0.01 µM
EC50 (4T1/6TG): 20 ± 0.5 µM
EC50 (A2780/taxol): 20.1 ± 0.68 µM
Therapeutic window (MCF10A): > 6.7
EC50 (MCF10A; Homo sapiens, MCF-10A, MCF10A, breast normal cell, read-out: EC50 of YL001): > 100 µM
EC50 (CNE-2Z): 5.94 ± 0.02 µM
EC50 (786-O): 14.7 ± 0.62 µM
